In PubChem BioAssay AID1919009 (Molecular Pharmacology Branch, DTP, NCI, 2023) one finds IC50 and viability, T/C data, which are given here for four molecules.

Several values for one entry are separate records, joined by “and”; a condition that tells them apart may be missing. Identical values can stand only once.

This assay deals with K24384-001-R-PDC complex spheroid growth. Put plainly: Anticancer human tumor K24384-001-R-PDC patient-derived pancreatic adenocarcinoma cell line growth inhibition [AhR]. The conditions noted are these: for viability, T/C: stronger effect = lower value. An excerpt:
Multicellular complex tumor spheroid response to aryl hydrocarbon receptor antagonists in combination with a variety of drugs and investigational agents in selected tumor cell lines
The current study was undertaken to assess response to aryl hydrocarbon receptor antagonists in combination with standard-of-care drugs and investigational agents in solid tumor complex spheroid models. Complex spheroids include a stromal component modeled by human endothelial cells (HUVEC) and fibroblasts modeled by human mesenchymal stem cells (MSCs). The concentration ranges selected for each drug and investigational agent were based upon clinically achievable concentrations if the clinical Cmax of the agent was known.
Compounds. The drugs and investigational agents: BAY 2416964 (NSC825713), GNF351 (NSC835774), CH-223191 (NSC835775), CPI-455 (NSC825282), aza-TdCyd (NSC777586), decitabine (NSC127716), belinostat (NSC758774), entinostat (NSC756642), pevonedistat (NSC761192), tazemetostat (NSC777109), talazoparib (NSC765396), olaparib (NSC753686), selinexor (NSC780203), nedisertib (M3814, NSC802822), bortezomib (NSC756655), venetoclax (NSC766270), doxorubicin (NSC123127), elimusertib (BAY189344, NSC800525), ceralasertib (AZD6738, NSC777638), TAK-243 (NSC785004), alisertib (NSC759677), etoposide (NSC141540), topotecan (NSC609699), eribulin (NSC707389), gemcitabine (NSC613327), carboplatin (NSC241240), cisplatin (NSC119875), and SN-38 (NSC673596) were obtained from the National Cancer Institute (NCI) Developmental Therapeutics Program Chemical Repository (32). The FDA-approved anticancer drug set is available from the Developmental Therapeutics Program at https://dtp.cancer.gov/organization/dscb/obtaining/available plates.htm. […] The stock solutions were prepared in dimethyl sulfoxide (DMSO, Sigma-Aldrich, St. Louis, MO, cat. D2650), except for the platinum compounds which were prepared in saline (Quality Biological, Gaithersburg, MD, cat. 114-055-101), at 800-fold the tested concentration and stored at -70 degrees C prior to their use. All drugs and investigational agents were tested over a range starting from a high concentration at or near the clinical Cmax and decreasing in half-log increments. If the clinical Cmax for an agent had not been determined, the highest concentration tested was 10 microM (Table 1).
Cell Culture. All cells were maintained in an incubator at 37 degrees C and 5% CO2 with 95% humidity. The PDC lines were cultured according to standard operating procedures established by the NCI PDMR (https://pdmr.cancer.gov). Briefly, all PDCs were thawed and cultured in Matrigel-coated flasks prepared with a working solution of 1X Ham's F-12 nutrient mix, without supplementation (Invitrogen, Waltham, MA, cat. 11765054), 100 U/mL penicillin-streptomycin (Invitrogen, cat. 15140122), and 2.5% Matrigel (Corning Inc., Corning, NY, cat. 354248) for the first three passages. All PDCs were cultured in complete DMEM/F-12 media containing advanced DMEM/F-12 (Invitrogen, cat. 12634028), 4.9% defined fetal bovine serum, heat inactivated (HyClone Laboratories Inc., Logan, UT, cat. SH30070.03HI), 389 ng/mL hydrocortisone (Sigma-Aldrich, cat. H4001), 9.7 ng/mL human EGF recombinant protein (Invitrogen, cat. PHG0313), 23.4 microg/mL adenine (Sigma-Aldrich, cat. A2786), 97.3 U/mL penicillin-streptomycin (Invitrogen, cat. 15140122), 1.9 mM L-glutamine (Invitrogen, cat. 25030081), and 9.7 microM Y-27632 dihydrochloride (Tocris Bioscience, Bristol, United Kingdom, cat. 1254). The PDCs were cultured in complete DMEM/F12 media without 10 microM Y-27632 dihydrochloride for at least two passages prior to the screen. The established cell lines NCI-H1341 and […] were cultured in DMEM/F-12, HEPES (Invitrogen, cat. 11330032), 5% defined fetal bovine serum (HyClone Laboratories Inc., cat. SH30070.03), ITS premix universal culture supplement [insulin (5 microg/mL), transferrin (5 microg/mL), and selenious acid (5 ng/mL)] […]

[1] abbreviates: curve of first compound, second compound 0.1 µM.
The mark [2] stands for this setting: curve of first compound, second compound 0.316 µM.
Setting [3] is: curve of first compound, second compound 1 µM.
The mark [4] stands for this setting: curve of first compound, second compound 3.16 µM.
[5] abbreviates: curve of first compound, second compound 10 µM.
The mark [6] stands for this setting: second compound 0.1 µM, first compound 0.000949 µM.
[7] abbreviates: second compound 0.1 µM, first compound 0.003 µM.
Where [8] appears, read: second compound 0.1 µM, first compound 0.00949 µM.
Where [9] appears, read: second compound 0.1 µM, first compound 0.03 µM.
Where [10] appears, read: second compound 0.1 µM, first compound 0.0949 µM.
[11] abbreviates: second compound 0.1 µM, first compound 0.3 µM.
Where [12] appears, read: second compound 0.316 µM, first compound 0.000949 µM.
Where [13] appears, read: second compound 0.316 µM, first compound 0.003 µM.
The mark [14] stands for this setting: second compound 0.316 µM, first compound 0.00949 µM.
Where [15] appears, read: second compound 0.316 µM, first compound 0.03 µM.
The mark [16] stands for this setting: second compound 0.316 µM, first compound 0.0949 µM.
Where [17] appears, read: second compound 0.316 µM, first compound 0.3 µM.
[18] abbreviates: second compound 1 µM, first compound 0.000949 µM.
The mark [19] stands for this setting: second compound 1 µM, first compound 0.003 µM.
Where [20] appears, read: second compound 1 µM, first compound 0.00949 µM.
Setting [21] is: second compound 1 µM, first compound 0.03 µM.
Setting [22] is: second compound 1 µM, first compound 0.0949 µM.
Where [23] appears, read: second compound 1 µM, first compound 0.3 µM.
The mark [24] stands for this setting: second compound 3.16 µM, first compound 0.000949 µM.
Where [25] appears, read: second compound 3.16 µM, first compound 0.003 µM.
The mark [26] stands for this setting: second compound 3.16 µM, first compound 0.00949 µM.
Where [27] appears, read: second compound 3.16 µM, first compound 0.03 µM.
Setting [28] is: second compound 3.16 µM, first compound 0.0949 µM.
[29] abbreviates: second compound 3.16 µM, first compound 0.3 µM.
Where [30] appears, read: second compound 10 µM, first compound 0.000949 µM.
Where [31] appears, read: second compound 10 µM, first compound 0.003 µM.
[32] abbreviates: second compound 10 µM, first compound 0.00949 µM.
The mark [33] stands for this setting: second compound 10 µM, first compound 0.03 µM.
The mark [34] stands for this setting: second compound 10 µM, first compound 0.0949 µM.
Setting [35] is: second compound 10 µM, first compound 0.3 µM.
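For viability, T/C in this document: percent of DMSO vehicle-treated spheroid viability set as 100%.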

On to `Nc1ncn(C2CC(O)C(CO)S2)c(=O)n1` (centres undefined) + Cc1cncc(-c2nc(NCCc3c[nH]c4ccccc34)c3ncn(C(C)C)c3n2)c1, for which the IC50 is, setting by setting: under setting [1], greater than 300 nM; under setting [2], greater than 300 nM; under setting [3], greater than 300 nM; under setting [4], less than 0.949 nM; under setting [5], less than 0.949 nM. Besides, the viability, T/C is 122% under setting [6]; 126% under setting [7]; 116% under setting [8]; 101% under setting [9]; 78.1% under setting [10]; 73.5% under setting [11]. Besides, the viability, T/C reads like this: under setting [12], 134%; under setting [13], 137%; under setting [14], 122%; under setting [15], 119%; under setting [16], 98.1%; under setting [17], 84%. In addition, the viability, T/C was 173% under setting [18]; 162% under setting [19]; 177% under setting [20]; 129% under setting [21]; 111% under setting [22]; 96% under setting [23]. In addition, the viability, T/C was 28.2% under setting [24]; 38.4% under setting [25]; 43.5% under setting [26]; 28.2% under setting [27]; 29.9% under setting [28]; 27.4% under setting [29]. Also, the viability, T/C under setting [30] was 18.1%; the viability, T/C under setting [31] was 28.5%; the viability, T/C under setting [32] was 24.7%; the viability, T/C under setting [33] is 12.8%; the viability, T/C under setting [34] is 15.5%; the viability, T/C under setting [35] was 18.5%.

For the molecule `O=C(C=Cn1cnc(-c2cc(C(F)(F)F)cc(C(F)(F)F)c2)n1)NNc1cnccn1`, the viability, T/C (compound 0.00949 µM) was 103% and 108% and 124%; the viability, T/C (compound 0.03 µM) is 102% and 118% and 111%; the viability, T/C (compound 0.0949 µM) was 83.7% and 73.7% and 79.4%; the viability, T/C (compound 0.3 µM) is 42.4% and 48.4% and 54.7%; the viability, T/C (compound 0.949 µM) is 29.9% and 28.1% and 41.4%; the viability, T/C (compound 3 µM) is 22.9% and 24.3% and 29.5%. Also, the IC50 (curve of compound) is 246 nM and 245 nM and 422 nM.

With `Nc1ncn(C2CC(O)C(CO)S2)c(=O)n1` (centres undefined) + Cc1ccccc1N=Nc1ccc(NC(=O)c2ccnn2C)c(C)c1, the IC50 was greater than 300 nM under setting [1]; greater than 300 nM under setting [2]; greater than 300 nM under setting [3]; greater than 300 nM under setting [4]; greater than 300 nM under setting [5]. Besides, the viability, T/C was 92.5% under setting [6]; 103% under setting [7]; 105% under setting [8]; 79.3% under setting [9]; 66% under setting [10]; 57.8% under setting [11]. The viability, T/C is 111% under setting [12]; 99.7% under setting [13]; 88.4% under setting [14]; 66.2% under setting [15]; 65.8% under setting [16]; 54.5% under setting [17]. In addition, the viability, T/C is, setting by setting: under setting [18], 99.3%; under setting [19], 82%; under setting [20], 68.7%; under setting [21], 78.9%; under setting [22], 61.5%; under setting [23], 58%. Also, the viability, T/C runs as follows: under setting [24], 86.6%; under setting [25], 83.3%; under setting [26], 92.6%; under setting [27], 63.5%; under setting [28], 53.1%; under setting [29], 46.9%. In addition, the viability, T/C reads like this: under setting [30], 100%; under setting [31], 103%; under setting [32], 87.4%; under setting [33], 82.8%; under setting [34], 72.4%; under setting [35], 60.7%.

As for `CC(C)CC(NC(=O)C(Cc1ccccc1)NC(=O)c1cnccn1)B(O)O` (centres undefined), the viability, T/C is 105% and 92.1% and 95.6% (compound 0.000949 µM); 108% and 98.8% and 96.7% (compound 0.003 µM); 62.6% and 70.1% and 20.1% (compound 0.00949 µM); 2.24% and 1.22% and 0.66% (compound 0.03 µM); 0.59% and 0.38% and 0.4% (compound 0.0949 µM); 0.39% and 0.36% and 1.49% (compound 0.3 µM). Besides, for the setting “curve of compound”, the IC50 was 12 nM and 13.3 nM and 6.03 nM.

As usually defined, the IC50 is the point on the concentration scale where inhibition reaches its midpoint. In general, viability, T/C refers to the result in the treated group divided by that in the control group, in per cent.
